Measured values reported in patent US10232002B1, “Oncolytic HSV1 vectors and methods of using the same” (priority 2012, dated 2019).

Test system: U87ΔEGFR glioma cells

## Cn1nnc2c(C(N)=O)ncn2c1=O [TMZ, temozolomide]
  EC30 dose: 66 µM
